# Tests used:
# [1] = tested on: free α-glucosidase in a sample (stools); assay: Coloration at the point of deposit of the stool, castanospermine medium; assay type: biochemical; set-up: key to Deposit coloration: 0=no coloration; 0.5=trace of coloration; 1=weak coloration; 2=strong coloration; settings: for Deposit coloration: Table 6
# Method: (§1) Seeding of Salmonella bacteria: 10 μl of stools are deposited onto a Petri dish, this stool suspension is mixed or not mixed with 10 μl of a suspension of Salmonella (0.5 McF) and isolated as 3 dials on a Petri dish. Various […] and various Salmonella strains originating from the applicant's collection are used according to this protocol. The Petri dishes are incubated at 37° C. for 24 hours. The appearance of a coloration at the point of deposit of the stool (“deposit” column) and at the Salmonella colony (“colony” column) is read according to a semi-quantitative scale: • 0=no coloration • 0.5=trace of coloration • 1=weak coloration • 2=strong coloration The results obtained are given in Table 1.
# (§2) Preparation of the detection medium: 250 ml of the medium of Example 1, in which the O,O-diethyl p-nitrophenyl phosphate is replaced with various concentrations of castanospermine: 0, 1, 2, 4 and 8 g/l, are prepared according to the method of Example 1.
# (§3) The various detection media thus obtained are poured into Petri dishes.
# (§4) Seeding of Staphylococcus aureus strains: The Petri dishes are inoculated, incubated and read as in Example 1.
# [2] = tested on: Staphylococcus aureus strains; assay: Coloration of Staphylococcus aureus colonies, castanospermine medium; assay type: cell-based; set-up: key to Colonies coloration: 0=no coloration; 0.5=trace of coloration; 1=weak coloration; 2=strong coloration; settings: for Colonies coloration: Table 6
# Method: as §1, §2, §3, §4
# [3] = Colonies column read for stool without added strain, castanospermine medium; set-up: key: 0=no coloration; 0.5=trace of coloration; 1=weak coloration; 2=strong coloration; settings: Table 6, no strain
# Method: as §1, §2, §3, §4
# [4] = 1 g/l, stool A, Staphylococcus aureus No. 1
# [5] = 1 g/l, stool B, Staphylococcus aureus no 2
# [6] = 2 g/l, stool A, Staphylococcus aureus No. 1
# [7] = 2 g/l, stool B, Staphylococcus aureus no 2
# [8] = 4 g/l, stool A, Staphylococcus aureus No. 1
# [9] = 4 g/l, stool B, Staphylococcus aureus no 2
# [10] = 8 g/l, stool A, Staphylococcus aureus No. 1
# [11] = 8 g/l, stool B, Staphylococcus aureus no 2
substance,measurement,setting,value
castanospermine,Deposit coloration,[1]; [4],2
same,Deposit coloration,"[1]; 1 g/l, stool A, no strain",1
same,Deposit coloration,[1]; [5],2
same,Deposit coloration,"[1]; 1 g/l, stool B, no strain",0.5
same,Deposit coloration,[1]; [6],1
same,Deposit coloration,"[1]; 2 g/l, stool A, no strain",1
same,Deposit coloration,[1]; [7],1
same,Deposit coloration,"[1]; 2 g/l, stool B, no strain",0.5
same,Deposit coloration,[1]; [8],1
same,Deposit coloration,"[1]; 4 g/l, stool A, no strain",0.5
same,Deposit coloration,[1]; [9],0.5
same,Deposit coloration,"[1]; 4 g/l, stool B, no strain",0
same,Deposit coloration,[1]; [10],1
same,Deposit coloration,"[1]; 8 g/l, stool A, no strain",0
same,Deposit coloration,[1]; [11],0
same,Deposit coloration,"[1]; 8 g/l, stool B, no strain",0
same,Aspecific enzymatic reactions due to the presence of free enzymes,"[1]; stools, Staphylococcus aureus identification, summary in words",greatly inhibited
same,Enzymes originating from the bacteria,"[2]; Staphylococcus aureus colonies, summary in words",not inhibited
same,Colonies coloration,[2]; [4],2
same,Colonies coloration,[2]; [5],2
same,Colonies coloration,[2]; [6],2
same,Colonies coloration,[2]; [7],2
same,Colonies coloration,[2]; [8],2
same,Colonies coloration,[2]; [9],2
same,Colonies coloration,[2]; [10],1
same,Colonies coloration,[2]; [11],1
same,Colonies coloration,"[3]; 1 g/l, stool A",0
same,Colonies coloration,"[3]; 1 g/l, stool B",0
same,Colonies coloration,"[3]; 2 g/l, stool A",0
same,Colonies coloration,"[3]; 2 g/l, stool B",0
same,Colonies coloration,"[3]; 4 g/l, stool A",0
same,Colonies coloration,"[3]; 4 g/l, stool B",0
same,Colonies coloration,"[3]; 8 g/l, stool A",0
same,Colonies coloration,"[3]; 8 g/l, stool B",0
